Experimental data reported in patent publication US20180203025A1, “HDL THERAPY MARKERS” (Cerenis Therapeutics Holding SA, priority 2014, published 2018).

Columns and labels:
J774 macrophages = assay: Radioactive cholesterol efflux from J774 macrophages; assay type: cell-based, mouse; conditions: Study N; 0.03 to 10 mM; 6 hours
Procedure: J774 macrophages obtained from ATCC (No TIB-67) were grown in Dulbecco's modified Eagle's medium (DMEM, Invitrogen) supplemented with 10% FBS (foetal bovine serum, Invitrogen), 100 units/ml penicillin G (Invitrogen), and 100 units/ml streptomycin (Invitrogen) at 37° C. with 5% CO2. Cells were seeded on 24-well plates (Falcon) at 40,000 cells/well and grown for 32 hours in 2 ml DMEM 10% FBS. LDL oxidation: 1 ml LDL is dialyzed against 4 L PBS (twice, 12 hours each) in Slide-A-Lyzer™ Mini Dialysis Units 7000MWCO (Pierce).
[1] After dialysis, proteins-LDL are quantified with Coomassie protein assay (#1856209, ThermoScientific) using albumin (#23209, ThermoScientific) as standards. Absorbance is read with Glomax multi detection System (Promega) at 600 nm. […] After dialysis, proteins-LDL are quantified by same method as. […]
The efflux is induced by adding different acceptors for 6 hours (or different time between 1 to 24 hours) in 250 μl DMEM without FBS. Radioactivity was measured by adding the medium (0.25 ml) to Super Mix (0.75 ml) (1200-439 Perkin-Elmer), mixed in 24 well flexible microplate (1450-402 Perkin-Elmer) and radioactivity was measured with MicroBeta® Trilux (2 minutes counting time). The intracellular [^3H] cholesterol was extracted by 0.2 ml hexane-isopropanol (3:2) (incubation 0.5 hours) and measured by liquid scintillation counting. […]

[1] = tested on: ligatured carotid from apoE−/− mice; assay: Cholesterol content of ligatured left carotids, apoE−/− mice on high fat diet; assay type: in vivo, mouse; conditions: 8 injections
Procedure: The formulation was injected in the retro-orbital vein (50 μL/mouse) of mice anaesthetized with isoflurane, once every 2 days for 8 injections. The dose administered was based on the mean of mice bodyweight in each cage. The compounds were injected at 10 AM every day. For blood sampling, mice fasted overnight were sampled once at the indicated dose: (1) at predose (at 9 AM) by retro-orbital withdrawal: 24 hours before the first injection/day of surgery; (2) at postdose (at 9 AM) by retro-orbital withdrawal: 24 hours after the last injection; and (3) at t=0 (9 AM) and the indicated time points after the 5th injection by caudal withdrawal. Immediately after collection, blood samples were kept at ca. +4° C. to avoid alteration of the blood sample. Blood specimens were centrifuged (800×g for 10 minutes at +4° C.) and plasma was saved for future analysis.
This study examined the effect of CER-001 administration on plaque progression in ligatured carotid from apoE^−/− mice fed with a high fat diet. For each group of mice, the cholesterol content of the carotid was tested after lipid extraction and HPLC analysis. The ligatured carotids were collected the day of sacrifice and stored at −80° C. The lipids were extracted with an organic solution and the cholesterol concentration was determined by HPLC.
Ligatured carotids were lipid extracted according to the method of Section 9.2.9. The surgical straps were removed from the carotid (fresh weight) and the tissue was introduced in a glass tube. To this was added 1.8 mL of CHCl3/MeOH (2:1) and mixed overnight at 4° C. The carotid was then removed, dried and weighed and the organic solution (CHCl3/MeOH) was split in two glass tubes in equal volumes. For unesterified cholesterol (UC), 100 μL of β-sitosterol (internal standard) was added and the solution was dried. To this was added 200 μL EtOH for solubilisation of the sample and the sample was analyzed UC by HPLC. […] To this was added 200 μL EtOH for solubilisation of the sample and analysed TC by HPLC. The cholesterol concentration was determined by HPLC according to the method of Section 9.2.7. […]

[2] = tested on: carotid artery and aorta vessel wall; assay: SAMBA trial: mean vessel wall thickness by 3Tesla MRI; assay type: in vivo, human
Procedure: The patients were initially treated in an intense “induction phase,” receiving 9 doses of CER-001 at a dose of 8 mg/kg over 4 weeks. After this induction phase, the study subjects were re-evaluated with lipoprotein profiles and an MRI scan. Subsequently, the study subjects continued to be treated once every two weeks in a “maintenance phase” for 6 months' total therapy. At that point the lipoprotein profiles and MRI scans were repeated.
FIG. 70 and FIG. 71 show the mean carotic and aortic vessel wall thickness, respectively, on a patient-by-patient basis after one month of treatment. Mean vessel wall thickness of the carotid artery decreased by a mean of −6.4% after one month of induction therapy, and mean vessel wall thickness of the aorta decreased by a mean of −4.6% after one month of induction therapy. The homozygous ApoA-I deficiency patient experienced a −17% regression of carotid mean vessel wall thickness. […] Mean vessel wall thickness was determined by 3Tesla MRI.

[3] = mean of subjects, one month of induction therapy, 8 mg/kg

| Molecule | cholesterol efflux (J774 macrophages) | decrease in total cholesterol contents in ligatured carotids ([1]; 2, 5 and 10 mg/kg) | decrease in unesterified cholesterol in ligatured carotids ([1]; 2, 5 and 10 mg/kg) | inhibition of plaque progression ([1]; 20 and 50 mg/kg) | benefit on vessel wall thickness ([2]; after an additional 5 months of maintenance therapy) | regression of carotid mean vessel wall thickness ([2]; homozygous ApoA-I deficiency patient) | change of mean vessel wall thickness of the aorta [2, 3] | change of mean vessel wall thickness of the carotid artery [2, 3] |
| --- | --- | --- | --- | --- | --- | --- | --- | --- |
| OC[C@H]1O[C@@H]2O[C@H]3[C@H](O)[C@@H](O)[C@@H](O[C@H]4[C@H](O)[C@@H](O)[C@@H](O[C@H]5[C@H](O)[C@@H](O)[C@@H](O[C@H]6[C@H](O)[C@@H](O)[C@@H](O[C@H]7[C@H](O)[C@@H](O)[C@@H](O[C@H]8[C@H](O)[C@@H](O)[C@@H](O[C@H]1[C@H](O)[C@H]2O)O[C@@H]8CO)O[C@@H]7CO)O[C@@H]6CO)O[C@@H]5CO)O[C@@H]4CO)O[C@@H]3CO [β-cyclodextrin, reference compound] | dose-dependent increase | – | – | – | – | – | – | – |
| CER-001: engineered recombinant human apolipoprotein A-I HDL with sphingomyelin and DPPG; protein-to-phospholipid ratio 1:2.7, 97% Sph and 3% DPPG | – | 50% | 25% | around 10% | persistent and cumulative benefit | −17% | −4.6% | −6.4% |
